Experiments:
[1] = system: Escherichia coli (BCRC 10675); assay: Inhibition zone (disk diffusion) assay; format: cell-based; settings: then disk diffusion 16 h at 37°C
Description: (§1) All assays were performed in triplicate.
(§2) The antimicrobial activity of rEP from flask cultures was evaluated by determining its ability to prevent growth of Gram-positive and Gram-negative bacteria with a disk diffusion assay. […] The most susceptible pathogens were R. anatipestifer (CFC27) and R. anatipestifer (CFC437) (Table 3a). Next, we investigated the thermostability of flask-fermented rEP with regard to its toxicity toward S. aureus (BCRC 10780), E. coli (BCRC 10675) and P. aeruginosa (ATCC 19660). Empty vector with no insert in P. pastoris was used as a control. Thermostability was measured by disk diffusion assay after cultures were incubated for 5 min at 40, 60, 80, or 100°C (Table 3b).

[2] = system: Pseudomonas aeruginosa (ATCC 19660); assay: Inhibition zone (disk diffusion) assay; format: cell-based; settings: then disk diffusion 16 h at 37°C
Description: as §1, §2

[3] = system: Riemerella anatipestifer (CFC27); assay: Inhibition zone (disk diffusion) assay; format: cell-based; settings: disk paper 16 h at 37°C, shake-flask supernatant 120 h after induction
Description: as §1, §2

[4] = system: Riemerella anatipestifer (CFC437); assay: Inhibition zone (disk diffusion) assay; format: cell-based; settings: disk paper 16 h at 37°C, shake-flask supernatant 120 h after induction
Description: as §1, §2

[5] = system: Riemerella anatipestifer (RA3); assay: Inhibition zone (disk diffusion) assay; format: cell-based; settings: disk paper 16 h at 37°C, shake-flask supernatant 120 h after induction
Description: as §1, §2

[6] = system: Staphylococcus aureus (BCRC 10780); assay: Inhibition zone (disk diffusion) assay; format: cell-based; settings: then disk diffusion 16 h at 37°C
Description: as §1, §2

[7] = system: K. oxytoca; assay: Inhibition zone assay, flask culture supernatant; format: cell-based, Klebsiella oxytoca; settings: flask culture supernatant after 5 days of methanol induction
Description: as §1
Fig 4 Antimicrobial activity of rEP produced in P. pastoris by flask and fermenter methods. (a) rEP concentration in the yeast culture supernatant before and after induction with methanol for 24 h to 120 h in flask culture. […] The marker “-” represents Gram-negative; “+” represents Gram-positive. (b) The antibacterial activity of rEP produced by the fermenter method. Yeast were induced with methanol from 24 h to 120 h in a fermenter.

[8] = system: Interferon-γ; assay: Serum ELISA after dietary supplementation; format: in vivo, Gallus gallus domesticus; settings: 1.5% in diet, 35 days, compared to antibiotic group (P = 0.0043) and control group (P = 0.0073)
Text: (§3) A total of 189 male or female 2-day-old G. g. domesticus were randomly assigned to seven dietary treatment groups, including rEP (0.75, 1.5, 3.0, 6.0 and 12%), spiraline-A (Juily Pharmaceutical Co., LTD. San Sia, Taipei Hsien, Taiwan), and basal diet groups. Each treatment group consisted of one cage with twenty-seven G. g. domesticus. The composition of the fodder is presented in S1b–S1d Table. The animals were allowed ad libitum access to fodder and water for the duration of the trial, beginning from 3 days of age. The total time of feeding was 35 days. The G. g. domesticus were maintained in a cage (animal container) with a constant environment (28.9–37.8°C, 12/12 h light-dark cycle). rEP fodder and fecal sewage were not directly discharged to the outside.
(§4) Body weight and survival rate were monitored daily during the experimental period. The weight gain, feed efficiency (FE), protein efficiency ratio (PER), and survival percentage were calculated. After 35 days of treatment, the G. g. domesticus were euthanized, blood samples were collected and serum was obtained by centrifugation (3000 ×g for 15 min at 4°C). Serum was kept at -80°C until analysis. Enzyme-linked immunosorbent assay (ELISA) was performed in accordance with the manufacturer’s standard procedures to determine the levels of immunological factors, including TNF-α, Interleukin-1β, Interleukin-6, Interleukin-10, Lysozyme, Immunoglobin-G (IgG), and Interferon-γ. Chicken serum samples were analyzed with ELISA kits from ABclonal Inc. (Woburn, MA, USA). After the reaction was completed, the optical density (OD) was measured at 450 nm on a microplate reader (SpectraMax® i3, Molecular Devices, Lagerhausstrasse, Wals, Austria).

[9] = system: Interleukin-10; assay: Serum ELISA after dietary supplementation; format: in vivo, Gallus gallus domesticus; settings: rEP-supplemented group, 35 days, compared to control group (P = 0.0341), not different than the antibiotic group
Text: as §3, §4

[10] = system: Interleukin-1β; assay: Serum ELISA after dietary supplementation; format: in vivo, Gallus gallus domesticus; settings: dietary supplementation 35 days, between groups
Text: as §3, §4

[11] = system: Interleukin-6; assay: Serum ELISA after dietary supplementation; format: in vivo, Gallus gallus domesticus; settings: dietary supplementation 35 days, between groups
Text: as §3, §4

[12] = system: Lysozyme; assay: Serum ELISA after dietary supplementation; format: in vivo, Gallus gallus domesticus; settings: dietary supplementation 35 days, between groups
Text: as §3, §4

[13] = system: TNF-α; assay: Serum ELISA after dietary supplementation; format: in vivo, Gallus gallus domesticus; settings: dietary supplementation 35 days, between groups
Text: as §3, §4

[14] = system: duodenum villus; assay: Intestinal morphology, histological analysis; format: in vivo, Gallus gallus domesticus; settings: rEP animals compared to the control group, hematoxylin and eosin staining (S3 Fig)
Description: (§5) The growth promoting action of EP may be related to intestinal absorption and as such, small villus morphology was evaluated in a previous study. […] Moreover, growth enhancement has been observed in other reports. For example, feeding mice with PR39 peptide (4.7 kDa proline-rich AMP)-expressing Lactobacillus casei caused jejunum and duodenum villus height in the intestinal villi to increase. Use of recombinant porcine β-defensin 2 (rpBD2) as a feed additive for weaned piglets also produced increases in intestinal villus height of the duodenum and jejunum. Additionally, birds fed with AMP-A3 diet had increased villus height of the duodenum, jejunum and ileum. […] Fig). […] Supplementary file pone.0230021.s003.TIF: S3 Fig Effects of orally administered a rEP on posture, body weight, intestinal morphology, and gut flora. (a) After 28 days of feeding the 1.5% rEP-receiving chickens were larger than the spiraline A and basal diet controls. (b) The effects of feeding 1.5% rEP on body weight. (c) Representative picture of hematoxylin and eosin staining of intestinal villi and crypts. (d) The intestinal villus length and crypt depth were measured. (e) The effects of orally administrated the spiraline A, basal diet, and 1.5% rEP on intestinal microflora in G. g. domesticus. Relative proportions of bacterial families are shown. […]

[15] = system: intestinal microflora; assay: Intestinal microflora in duodenum; format: in vivo, Gallus gallus domesticus; settings: 1.5% rEP in diet, compared to spiraline A and basal diet groups (S3e Fig)
Description: as §5

[16] = thermostability: flask supernatant incubated 5 min at 40°C
[17] = thermostability: flask supernatant incubated 5 min at 60°C
[18] = thermostability: flask supernatant incubated 5 min at 80°C

Sequence: EFFIFHIIKGLFHAGRMIHGLVNRRRHRHHHHHH [rEP, recombinant His-tagged Epinephelus lanceolatus piscidin from Pichia pastoris, used as crude culture supernatant or spray-dried powder]
- Inhibition zone diameter after heat treatment [1, 16]: 9.0±1.0 mm
- Inhibition zone diameter after heat treatment [1, 17]: 9.0±1.0 mm
- Inhibition zone diameter after heat treatment [1, 18]: 8.6±0.5 mm
- Inhibition zone diameter after heat treatment [2, 16]: 10.1±0.3 mm
- Inhibition zone diameter after heat treatment [2, 17]: 9.5±0.2 mm
- Inhibition zone diameter ([3]; first of two values printed): 12 mm
- Inhibition zone diameter ([3]; second of two values printed): 14 mm
- Inhibition zone diameter ([4]; first of two values printed): 11 mm
- Inhibition zone diameter ([4]; second of two values printed): 13 mm
- Inhibition zone diameter ([5]; first of two values printed): 10, 10 mm
- Inhibition zone diameter ([5]; second of two values printed): 10, 10 mm
- Inhibition zone diameter after heat treatment [6, 16]: 10.6±1.5 mm
- Inhibition zone diameter after heat treatment [6, 17]: 9.1±0.7 mm
- Inhibition zone diameter after heat treatment [6, 18]: 9.3±0.5 mm
- Inhibition zone diameter after heat treatment ([6]; thermostability: flask supernatant incubated 5 min at 100°C): 9.3±0.5 mm
- Inhibition zone [7]: large inhibition zones
- Serum IFN-γ level [8]: significantly increased
- Serum IL-10 level [9]: significantly higher
- Serum IL-1β level [10]: No significant changes
- Serum IL-6 level [11]: No significant changes
- Serum Lysozyme (Lyz) level [12]: No significant changes
- Serum TNF-α level [13]: No significant changes
- Duodenum villus height [14]: significantly greater
- Numbers of Enterobacteriaceae and Staphylococcaceae in duodenum [15]: decreasing
- Numbers of Lactobacillaceae and Entercoccaceae in duodenum [15]: significantly increased

From publication PMC7065771, “Dietary supplementation of recombinant antimicrobial peptide Epinephelus lanceolatus piscidin improves growth performance and immune response in Gallus gallus domesticus” (PLoS ONE, 2020)
